The record followed here is paper PMC10544575, “Inhibitory mechanism of vortioxetine on CYP450 enzymes in human and rat liver microsomes” (Frontiers in Pharmacology, 2023).

Common to all, as to assay type: in vitro ADME
The test system of one series is CYP2D. Put plainly: IC50-shift experiment, CYP2D in RLMs. The following applies: rat, rat liver microsomes, probe dextromethorphan; for IC50 at 30 min: dextromethorphan 20 μM. As to the method:
(§1) The components of the incubation system were as follows: 0.20 mg/mL HLMs or 0.20 mg/mL RLMs, 0.1 M Tris-HCl, vortioxetine, and the probe substrates of each enzyme. In the study of Km’s (Michaelis–Menten constant) experiment, midazolam (1, 2, 5, 10, 20, 50 and 100 μM in HLMs and RLMs) corresponded to CYP3A4/3A; bupropion (10, 20, 50, 100, 200, 500, 1,000 and 2000 μM in HLMs; 1, 2, 5, 10, 20, 50, 100 and 200 μM in RLMs) corresponded to CYP2B6/2B; amodiaquine (5, 10, 20, 50, 100 and 200 μM in HLMs; 10, 20, 50, 100, 200, 500 μM in RLMs) corresponded to CYP2C8/CYP2C-1; losartan (1, 2, 5, 10, 20, 50, 100, 200 μM in HLMs; 10, 20, 50, 100, 200, 500 and 1,000 μM in RLMs) corresponded to CYP2C9/CYP2C-2; mephenytoin (20, 50, 100, 200, 500 and 1,000 μM in HLMs; 5, 10, 20, 50, 100, 200, 500 and 1,000 μM in RLMs) corresponded to CYP2C19/CYP2C-3; and dextromethorphan (1, 2, 5, 10, 20, 50 and 100 μM in HLMs and RLMs) corresponded to CYP2D6/CYP2D. After 5.0 min of preincubation in the shaking water bath, the reaction was started with the addition of 1.0 mM NADPH. The incubated temperature at 37°C for 30 min. After the incubation, the enzyme reaction was stopped by cooling at −80°C, and 200 μL of acetonitrile and 20 μL of internal standard diazepam (200 ng/mL) were added for protein precipitation. […]
(§2) IC50-shift was used to investigate whether the drug produced time-dependent inhibition (TDI) of the enzyme. […] During the experiment, the individual substrates midazolam (4 μM), bupropion (40 μM), amodiaquine (3 μM), losartan (8 μM), mephenytoin (90 μM), and dextromethorphan (10 μM) were determined with vortioxetine IC50-shift in HLMs. […]
(§3) All experiments results were detected by UPLC-MS/MS, which equipped with a Waters Acquity UPLC system (Milford, MA, United States) and a Waters Xevo TQ-S triple quadrupole tandem mass spectrometer with an electrospray ionization source (Milford, MA, United States). […]
(§4) IC50 values and enzyme kinetic parameters were calculated by Graphpad Prism 6.0 (GraphPad software Inc., CA, United States). […] Data for each experiment were expressed as mean ± SD (n = 3).
On the technique in general: Microsomes from liver hold many membrane-bound enzymes, among them those of drug oxidation.

For a further series, the target named is CYP2D6 (Homo sapiens, UniProt P10635). Description: IC50 of vortioxetine on CYP2D6 (dextromethorphan) in HLMs. The arrangement: 0.20 mg/mL HLMs; from tissue; host or cells: human liver microsomes. The protocol: as §1, with “CYP2D6/CYP2D.” for “CYP2D6/CYP2D. After 5.0 min of preincubation in the shaking water bath, the reaction was started with the addition of 1.0 mM NADPH. The incubated temperature at 37°C for 30 min. After the incubation, the enzyme reaction was stopped by cooling at −80°C, and 200 μL of acetonitrile and 20 μL of internal standard diazepam (200 ng/mL) were added for protein precipitation.”
Chain of CYP2D6 (P10635 whole entry): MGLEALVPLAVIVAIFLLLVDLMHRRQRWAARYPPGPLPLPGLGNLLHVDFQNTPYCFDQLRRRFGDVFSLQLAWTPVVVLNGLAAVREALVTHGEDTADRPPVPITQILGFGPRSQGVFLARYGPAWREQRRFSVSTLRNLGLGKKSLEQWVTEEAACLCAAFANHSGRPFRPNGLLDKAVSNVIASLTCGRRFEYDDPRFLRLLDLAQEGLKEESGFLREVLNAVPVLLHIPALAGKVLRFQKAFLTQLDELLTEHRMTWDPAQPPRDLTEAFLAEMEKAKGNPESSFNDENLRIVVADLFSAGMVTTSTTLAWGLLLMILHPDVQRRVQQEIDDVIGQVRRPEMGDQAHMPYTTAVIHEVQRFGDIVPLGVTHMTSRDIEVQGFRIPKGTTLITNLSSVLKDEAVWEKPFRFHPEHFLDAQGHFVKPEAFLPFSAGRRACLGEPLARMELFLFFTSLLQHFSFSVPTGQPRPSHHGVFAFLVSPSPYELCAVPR
as §3, §4

Another series deals with CYP3A4 (Homo sapiens, UniProt P08684). Put plainly: IC50-shift experiment, CYP3A4 in HLMs. Details: 0.20 mg/mL HLMs or 0.20 mg/mL RLMs; from tissue; host or cells: human liver microsomes. The conditions noted are these: for IC50: midazolam 4 μM. The protocol: as §1, §2, §3, §4
Chain of CYP3A4 (P08684 whole entry): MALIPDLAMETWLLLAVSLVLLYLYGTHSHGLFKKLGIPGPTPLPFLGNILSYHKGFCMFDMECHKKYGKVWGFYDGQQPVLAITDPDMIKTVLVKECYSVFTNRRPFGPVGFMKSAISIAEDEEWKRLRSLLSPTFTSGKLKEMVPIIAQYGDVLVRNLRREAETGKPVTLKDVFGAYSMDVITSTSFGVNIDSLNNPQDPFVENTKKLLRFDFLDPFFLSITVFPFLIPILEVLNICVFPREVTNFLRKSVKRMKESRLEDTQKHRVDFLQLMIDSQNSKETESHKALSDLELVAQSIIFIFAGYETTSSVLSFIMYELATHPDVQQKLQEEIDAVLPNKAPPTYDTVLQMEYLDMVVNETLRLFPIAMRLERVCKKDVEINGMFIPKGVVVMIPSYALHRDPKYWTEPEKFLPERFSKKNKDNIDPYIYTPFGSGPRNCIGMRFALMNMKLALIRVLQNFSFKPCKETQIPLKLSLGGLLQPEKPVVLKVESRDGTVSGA
The target in series [1] is T1, CYP2C9 (Homo sapiens, UniProt P11712). Put plainly: Reversible inhibition kinetics (Lineweaver-Burk), CYP2C9 in HLMs. Details: 0.20 mg/mL HLMs; from tissue; host or cells: human liver microsomes. The conditions noted are these: losartan. The protocol:
The components of the incubation system were as follows: 0.20 mg/mL HLMs or 0.20 mg/mL RLMs, 0.1 M Tris-HCl, vortioxetine, and the probe substrates of each enzyme. In the study of Km’s (Michaelis–Menten constant) experiment, midazolam (1, 2, 5, 10, 20, 50 and 100 μM in HLMs and RLMs) corresponded to CYP3A4/3A; bupropion (10, 20, 50, 100, 200, 500, 1,000 and 2000 μM in HLMs; 1, 2, 5, 10, 20, 50, 100 and 200 μM in RLMs) corresponded to CYP2B6/2B; amodiaquine (5, 10, 20, 50, 100 and 200 μM in HLMs; 10, 20, 50, 100, 200, 500 μM in RLMs) corresponded to CYP2C8/CYP2C-1; losartan (1, 2, 5, 10, 20, 50, 100, 200 μM in HLMs; 10, 20, 50, 100, 200, 500 and 1,000 μM in RLMs) corresponded to CYP2C9/CYP2C-2; mephenytoin (20, 50, 100, 200, 500 and 1,000 μM in HLMs; 5, 10, 20, 50, 100, 200, 500 and 1,000 μM in RLMs) corresponded to CYP2C19/CYP2C-3; and dextromethorphan (1, 2, 5, 10, 20, 50 and 100 μM in HLMs and RLMs) corresponded to CYP2D6/CYP2D. After 5.0 min of preincubation in the shaking water bath, the reaction was started with the addition of 1.0 mM NADPH. The incubated temperature at 37°C for 30 min. After the incubation, the enzyme reaction was stopped by cooling at −80°C, and 200 μL of acetonitrile and 20 μL of internal standard diazepam (200 ng/mL) were added for protein precipitation. The solution was fully vortexed and centrifuged at 13,000 × rpm for 10 min, and the supernatant was collected for data analysis by UPLC-MS/MS.
The inhibitory mechanism of the inhibitor on the enzyme was generally used by different concentrations of the inhibitor against different concentrations of the probe substrate. The concentrations of the inhibitor and the concentrations of probe substrates in the experiment were estimated based on IC50 and Km values, respectively.
In HLMs, the concentrations of the substrates midazolam, bupropion, amodiaquine, losartan, mephenytoin, and dextromethorphan were 1, 2, 4, 8 μM; 10, 20, 40, 80 μM; 0.8, 1.5, 3, 6 μM; 2, 4, 8, 16 μM; 20, 45, 90, 180 μM; 2.5, 5, 10, 20 μM, respectively. Corresponding to the concentration of vortioxetine were 2, 4, 9, 18 μM; 2, 4, 8, 16 μM; 4, 8, 15, 30 μM; 5, 10, 25, 50 μM; 0.6, 1.2, 2.5, 5 μM; 4.5, 9, 18, 36 μM, respectively.
All experiments results were detected by UPLC-MS/MS, which equipped with a Waters Acquity UPLC system (Milford, MA, United States) and a Waters Xevo TQ-S triple quadrupole tandem mass spectrometer with an electrospray ionization source (Milford, MA, United States). The chromatographic separation was performed on a Waters ACQUITY UPLC BEH C18 column (2.1 × 50 mm, 1.7 μm, Waters Corp.) at 40°C. […]
as §4

Series [2] deals with T1, CYP2C9. Put plainly: IC50 of vortioxetine on CYP2C9 (losartan) in HLMs. The arrangement: 0.20 mg/mL HLMs; from tissue; host or cells: human liver microsomes. The protocol:
as §1, with “CYP2D6/CYP2D.” for “CYP2D6/CYP2D. After 5.0 min of preincubation in the shaking water bath, the reaction was started with the addition of 1.0 mM NADPH. The incubated temperature at 37°C for 30 min. After the incubation, the enzyme reaction was stopped by cooling at −80°C, and 200 μL of acetonitrile and 20 μL of internal standard diazepam (200 ng/mL) were added for protein precipitation.”
as §3, §4

The mark [3] stands for this setting: 30 min preincubation with 1.0 mM NADPH.
[4] abbreviates: 30 min preincubation without NADPH.
Setting [5] is: inhibitory effect (strength judged by IC50), HLMs.

Each structure is given as a SMILES string. Where two headings read alike, the source gives them in different places.

T1 sequence (P11712 whole entry): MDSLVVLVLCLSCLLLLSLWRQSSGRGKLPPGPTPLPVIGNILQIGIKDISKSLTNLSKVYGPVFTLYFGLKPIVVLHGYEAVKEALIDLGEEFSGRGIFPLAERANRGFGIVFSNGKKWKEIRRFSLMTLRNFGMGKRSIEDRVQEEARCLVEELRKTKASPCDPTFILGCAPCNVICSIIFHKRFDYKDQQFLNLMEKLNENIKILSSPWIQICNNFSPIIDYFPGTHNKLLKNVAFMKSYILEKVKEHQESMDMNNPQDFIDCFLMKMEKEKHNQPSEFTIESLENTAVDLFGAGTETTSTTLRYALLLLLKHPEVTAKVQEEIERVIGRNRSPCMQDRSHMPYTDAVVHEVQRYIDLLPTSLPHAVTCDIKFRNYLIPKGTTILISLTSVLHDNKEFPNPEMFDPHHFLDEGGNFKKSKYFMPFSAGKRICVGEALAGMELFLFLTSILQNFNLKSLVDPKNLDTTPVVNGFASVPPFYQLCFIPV

As usually defined, the IC50 is the point on the concentration scale where inhibition reaches its midpoint. For orientation: Ki means the dissociation constant of the complex between target and ligand, obtained from inhibition or displacement. As for `Cc1ccc(Sc2ccccc2N2CCNCC2)c(C)c1` [vortioxetine], the IC50 at 30 min turned out to be 7.38 µM in the series with CYP2D (setting [3]) and 3.35 µM in the series on CYP2D (setting [4]). Besides, the IC50 shift at 30 min in the series with CYP2D (ratio IC50 (−) NADPH to IC50 (+) NADPH, read-out: IC50 fold shift) stood at 0.45; on CYP3A4 (human, human liver microsomes, probe midazolam (4 μM), ratio IC50 (−) NADPH to IC50 (+) NADPH, read-out: IC50 fold shift), 1.14. Further, the IC50 at CYP2D6 (HLMs 0.20 mg/mL, dextromethorphan at Km, 37°C, 30 min, read-out: IC50) is 17.9 µM; on CYP2D6 (setting [5]) it was > 10 µM; on CYP3A4 (setting [3]) it was 13.7 µM; at CYP3A4 (setting [4]), 15.5 µM; on CYP2C9 [2] (HLMs 0.20 mg/mL, losartan at Km, 37°C, 30 min, read-out: IC50), 23 µM; on CYP2C9 [2] (setting [5]), > 10 µM. Further, the Ki on CYP2C9 [1] came to 4.17 µM. Besides, the α at CYP2C9 [1] stood at 15.94. The Inhibition type result on CYP2C9 [1] (Lineweaver-Burk plot) is listed as “mixed inhibition”. For the same compound, on CYP2C9 [1] (secondary plot of y-intercepts), the αKi stood at 66.5 µM.
